Patent US20020183313A1, “1,4-benzodiazepinones and their uses as CCK antagonists” (Fujisawa Pharmaceutical Co., Ltd., priority 1996, published 2002)

Structure (SMILES) | melting point
Cc1ccccc1C(=O)CN1C(=O)C(NC(=O)c2cc3ccccc3[nH]2)N=C(C2CCCCC2)c2cccc(C)c21 (racemic) [24(2), (3RS)-5-Cyclohexyl-2,3-dihydro-3-(indol-2-yl)carbonylamino-9-methyl-1-(2-methylphenacyl)-1H-1,4-benzodiazepin-2-one] | 126.7 to 145.2 °C
CC1=NC(NC(=O)Nc2cccc(C)c2)C(=O)N(CC(=O)N2CCC(N3CCCCC3)CC2)c2c(C)cccc21 (racemic) [48-3(1), N-[(3RS)-1-[4-(Piperidino)piperidin-1-yl]carbonylmethyl-5,9-dimethyl-2,3-dihydro-2-oxo-1H-1,4-benzodiazepin-3-yl]-N′-(3-methylphenyl)urea] | 214.5 to 217.3 °C
CC1=NC(NC(=O)Nc2cccc(C)c2)C(=O)N(CC(=O)N2CCC(O)(c3ccccc3)CC2)c2c(C)cccc21 (racemic) [48-3(6), N-[(3RS)-1-(4-Hydroxy-4-phenylpiperidin-1-yl)carbonylmethyl-5,9-dimethyl-2,3-dihydro-2-oxo-1H-1,4-benzodiazepin-3-yl]-N′-(3-methylphenyl)urea] | 163.2 to 164.9 °C
CC1=NC(NC(=O)Nc2cccc(C)c2)C(=O)N(CC(=O)NC(C)(C)C)c2c(C)cccc21 (racemic) [48-3(11), N-[(3RS)-2,3-Dihydro-5,9-dimethyl-1-(N-tert-butylamino-carbonylmethyl)-2-oxo-1H-1,4-benzodiazepin-3-yl]-N′-(3-methylphenyl)urea] | 243.4 to 244.4 °C
CC1=NC(NC(=O)Nc2cccc(C)c2)C(=O)N(CC(=O)N2CCN(CCO)CC2)c2c(C)cccc21 (racemic) [48-3(14), N-[(3RS)-2,3-Dihydro-1-[4-(2-hydroxyethyl)piperazin-1-yl]carbonylmethyl-5,9-dimethyl-2-oxo-1H-1,4-benzodiazepin-3-yl]-N′-(3-methylphenyl)urea] | 221.7 to 224.2 °C
CC1=NC(NC(=O)Nc2cccc(C)c2)C(=O)N(CC(=O)N(CC(C)C)CC(C)C)c2c(C)cccc21 (racemic) [48-3(15), N-[(3 RS)-2,3-Dihydro-1-(N,N-diisobutylamino)carbonylmethyl-5,9-dimethyl-2-oxo-1H-1,4-benzodiazepin-3-yl]-N′-(3-methylphenyl)urea] | 226.9 to 228.1 °C
CC1=NC(NC(=O)Nc2cccc(C)c2)C(=O)N(CC(=O)N(CCO)CCO)c2c(C)cccc21 (racemic) [48-3(16), N-[(3RS)-2,3-Dihydro-1-(N,N-bis-(2-hydroxyethyl)amino)-carbonylmethyl-5,9-dimethyl-2-oxo-1H-1,4-benzodiazepin-3-yl]-N′-(3-methylphenyl)urea] | 160.5 to 161.1 °C
Cc1cccc(NC(=O)NC2N=C(CN(C)C)c3cccc(C)c3N(CC(=O)N3CCCCCCC3)C2=O)c1 (racemic) [71-3(1), N-[(3RS)-1-(azacyclooctan-1-yl)carbonylmethyl-2,3-dihydro-5-(N,N-dimethylamino)methyl-9-methyl-2-oxo-1H-1,4-benzodiazepin-3-yl]-N′-(3-methylphenyl)urea] | 147.9 to 149.1 °C
Cc1cccc(NC(=O)NC2N=C(C=O)c3cccc(C)c3N(CC(=O)N3CCCCCCC3)C2=O)c1 (racemic) [71-3(2), N-[(3RS)-1-(azacyclooctan-1-yl)carbonylmethyl-2,3-dihydro-5-formyl-9-methyl-2-oxo-1H-1,4-benzodiazepin-3-yl]-N′-(3-methylphenyl)urea] | 137.9 to 141 °C
CCOC(=O)C=CC1=NC(NC(=O)Nc2cccc(C)c2)C(=O)N(CC(=O)N2CCCCCCC2)c2c(C)cccc21 (racemic) [75(1)-1, N-[(3RS)-1-(azacyclooctan-1-yl)carbonylmethyl-2,3-dihydro-5-((EZ)-2-(ethoxycarbonyl)ethenyl)-9-methyl-2-oxo-1H-1,4-benzodiazepin-3-yl]-N′-(3-methylphenyl)urea] | 175.2 to 177.7 °C
Cc1cccc(NC(=O)NC2N=C(C=CC(=O)O)c3cccc(C)c3N(CC(=O)N3CCCCCCC3)C2=O)c1 (racemic) [75(1)-2, N-[(3RS)-1-(azacyclooctan-1-yl)carbonylmethyl-2,3-dihydro-5-((EZ)-2-carboxylethenyl)-9-methyl-2-oxo-1H-1,4-benzodiazepin-3-yl]-N′-(3-methylphenyl)urea] | 129.3 to 134.1 °C
CC(=O)c1sccc1CN1C(=O)C(NC(=O)Nc2cccc(C)c2)N=C(C(C)C)c2ccccc21 (racemic) [Example 2, N-[(3RS)-1-(2-acetylthiophen-3-yl)methyl-2,3-dihydro-5-isopropyl-2-oxo-1H-1,4-benzodiazepin-3-yl]-N′-(3-methylphenyl)urea] | 219 to 221 °C (dec.)
CC(=O)c1sccc1CN1C(=O)C(NC(=O)Nc2cccc(C)c2)N=C(CC(C)C)c2ccccc21 (racemic) [Example 6(3), N-[(3RS)-2,3-dihydro-5-(2-methylpropyl)-1-(2-methylcarbonylthiophen-3-yl)methyl-2-oxo-1,4-benzodiazepin-3-yl]-N′-(3-methylphenyl)urea] | 215 to 218 °C
CC(=O)OCCN1C(=O)C(NC(=O)Nc2cccc(-c3nnn[nH]3)c2)N=C(C2CCCCC2)c2cccc(C)c21 (racemic) [Example 21-1, N-[(3RS)-1-(2-Acetoxyethyl)-5-cyclohexyl-2,3-dihydro-9-methyl-2-oxo-1H-1,4-benzodiazepin-3-yl]-N′-[3-(tetrazol-5-yl)phenyl]urea] | 165.2 to 168.4 °C
Cc1cccc2c1N(CCO)C(=O)C(NC(=O)Nc1cccc(-c3nnn[nH]3)c1)N=C2C1CCCCC1 (racemic) [Example 21-2, N-[(3RS)-5-Cyclohexyl-2,3-dihydro-1-(2-hydroxyethyl)-9-methyl-2-oxo-1H-1,4-benzodiazepin-3-yl]-N′-[3-(tetrazol-5-yl)phenyl]urea] | 223.5 to 224.2 °C
CC1=NC(NC(=O)Nc2cccc(C)c2)C(=O)N(CC(=O)c2ccccc2C)c2c(C)cccc21 (racemic) [Example 37, N-[(3RS)-2,3-Dihydro-5,9-dimethyl-1-(2-methylphenacyl)-2-oxo-1H-1,4-benzodiazepin-3-yl]-N′-(3-methylphenyl)urea] | 128.4 to 136.2 °C
CC1=NC(NC(=O)Nc2cccc(C)c2)C(=O)N(CC(=O)C(C)(C)C)c2c(C)cccc21 (racemic) [Example 41, N-[(3RS)-2,3-Dihydro-5,9-dimethyl-1-tert-butylcarbonylmethyl-2-oxo-1H-1,4-benzodiazepin-3-yl]-N′-(3-methylphenyl)urea] | 179.6 to 181.2 °C
CCC(=O)CN1C(=O)C(NC(=O)Nc2cccc(C)c2)N=C(C)c2cccc(C)c21 (racemic) [Example 44, N-[(3RS)-2,3-Dihydro-1-ethylcarbonylmethyl-5,9-dimethyl-2-oxo-1H-1,4-benzodiazepin-3-yl]-N′-(3-methylphenyl)urea] | 125.1 to 127.5 °C
CC(=O)CN1C(=O)C(NC(=O)Nc2cccc(C)c2)N=C(C)c2cccc(C)c21 (racemic) [Example 46, N-[(3RS)-2,3-Dihydro-5,9-dimethyl-1-methylcarbonylmethyl-2-oxo-1H-1,4-benzodiazepin-3-yl]-N′-(3-methylphenyl)urea] | 126.1 to 127.7 °C
Cc1cccc2c1N(CC(=O)C1CC1)C(=O)C(NC(=O)Nc1cccc(-c3nnn[nH]3)c1)N=C2C1CCCCC1 (racemic) [Example 47, N-[(3RS)-5-Cyclohexyl-1-cyclopropylcarbonylmethyl-2,3-dihydro-9-methyl-2-oxo-1H-1,4-benzodiazepin-3-yl]-N′-[3-(tetrazol-5-yl)phenyl]urea] | 227.1 to 233.2 °C
CCOC(=O)CN1C(=O)C(NC(=O)Nc2cccc(C)c2)N=C(C)c2cccc(C)c21 (racemic) [Example 48-1, N-[(3RS)-2,3-Dihydro-1-ethoxycarbonylmethyl-5,9-dimethyl-2-oxo-1H-1,4-benzodiazepin-3-yl]-N′-(3-methylphenyl)urea] | 229.7 to 231 °C
Cc1cccc2c1N(Cc1c[nH]cn1)C(=O)C(NC(=O)Nc1cccc(-c3nnn[nH]3)c1)N=C2C1CCCCC1 (racemic) [Example 49, N-[(3RS)-5-Cyclohexyl-2,3-dihydro-1-(imidazol-4-yl)methyl-9-methyl-2-oxo-1H-1,4-benzodiazepin-3-yl]-N′-[3-(tetrazol-5-yl)phenyl]urea] | 168.2 to 179.2 °C
CC(=O)c1ccccc1CN1C(=O)C(NC(=O)Nc2cccc(-c3nnn[nH]3)c2)N=C(C2CCCCC2)c2cccc(C)c21 (racemic) [Example 51, N-[(3RS)-1-(2-acetylbenzyl)-5-cyclohexyl-2,3-dihydro-9-methyl-2-oxo-1H-1,4-benzodiazepin-3-yl]-N′-[3-(tetrazol-5-yl)phenyl]urea] | 199 to 208 °C
Cc1cccc(NC(=O)NC2N=C(C3CCCCC3)c3cccc(C)c3N(CC(=O)C3CCCCC3)C2=O)c1 (racemic) [Example 54, N-[(3RS)-5-Cyclohexyl-1-cyclohexylcarbonylmethyl-2,3-dihydro-9-methyl-2-oxo-1H-1,4-benzodiazepin-3-yl]-N′-(3-methylphenyl)urea] | 159.3 to 169.6 °C
CC1=NC(NC(=O)Nc2cccc(C)c2)C(=O)N(CC(=O)C2CCCCCC2)c2c(C)cccc21 (racemic) [Example 63, N-[(3RS)-1-Cycloheptylcarbonylmethyl-2,3-dihydro-5,9-dimethyl-2-oxo-1H-1,4-benzodiazepin-3-yl]-N′-(3-methylphenyl)urea] | 171.3 to 174.6 °C
CC1=NC(NC(=O)Nc2cccc(C)c2)C(=O)N(CC(=O)C2CCCC2)c2c(C)cccc21 (racemic) [Example 65, N-[(3RS)-1-Cyclopentylcarbonylmethyl-2,3-dihydro-5,9-dimethyl-2-oxo-1H-1,4-benzodiazepin-3-yl]-N′-(3-methylphenyl)urea] | 150.1 to 155.5 °C
CCC1=NC(NC(=O)Nc2cccc(C)c2)C(=O)N(CC(=O)N2CCCCCCC2)c2c(C)cccc21 (racemic) [Example 66, N-[(3RS)-1-(Azacyclooctan-1-yl)carbonylmethyl-2,3-dihydro-5-ethyl-9-methyl-2-oxo-1H-1,4-benzodiazepin-3-yl]-N′-(3-methylphenyl)urea] | 189 to 189.5 °C
Cc1cccc(NC(=O)NC2N=C(C(C)C)c3cccc(C)c3N(CC(=O)N3CCCCCCC3)C2=O)c1 (racemic) [Example 67, N-[(3RS)-1-(Azacyclooctan-1-yl)carbonylmethyl-2,3-dihydro-5-isopropyl-9-methyl-2-oxo-1H-1,4-benzodiazepin-3-yl]-N′-(3-methylphenyl)urea] | 131.7 to 132.8 °C
